The results in this text go back to patent US20250275982A1, “SOLID FORM FORMULATION COMPRISING CHROMIUM OR COPPER OR A VITAMIN, COMPOSITIONS AND USES THEREOF” (ALESCO S.R.L., priority 2019, published 2025).

Structures can show the parent of a compound that is named as a salt.

Type in all cases: cell-based
Test [1] concerns differentiated mouse myoblasts. Briefly: Glucose uptake study: intracellular glucose colorimetric assay in insulin-treated differentiated mouse myoblasts. The text has this: (§1) In vitro efficacy study: evaluation of the modulation of the carbohydrate metabolism by two compositions comprising a chromium salt (Composition 1 and Composition 2) in a culture of differentiated mouse myoblasts.
(§2) The following endpoints were considered:—glucose uptake, by means of intracellular glucose assay; • expression of GLUT-4, insulin-sensitive glucose transporter; and • ATP content, the primary source of energy for cellular biochemical reactions.
(§3) The experimental model used in this study is differentiated mouse myoblasts (ATCC Number: CRL-1772, lot 70013341), cultured in Dulbecco's Modified Eagle's Medium (DMEM) supplemented with 10% foetal bovine serum at 37° C., 5% CO2. The formation of myotubes is induced by adding horse serum.
(§4) The experimental protocol provided for: • Untreated control cells (CTR-); • Insulin-treated control cells (100 nM); • Insulin-treated cells and the Compounds in question (Composition 1 and Composition 2); • Insulin-treated cells and the reference Compound (metformin).
(§5) Three concentrations of each composition under study (Composition 1 and 2) were tested: 500 μM, 100 µM and 50 μM (Cr). The preparation of the samples involved the use of DMSO as solvent.
(§6) The reference Compound (metformin hydrochloride) was tested at 2000 μm. • The treatment of the cells with Composition 1 and 2 and reference Composition extended for 24 hours.
(§7) The cultures were then treated with insulin (100 nM) for 4 hours. A source of glucose was added to the media in the glucose uptake evaluation study. The treatments were conducted in quadruplicate.
(§8) At the end of the treatments the cells were lysed to obtain a cell homogenate on which it was assayed: • glucose, by means of colorimetric assay; • ATP, by means of colorimetric assay; • GLUT-4, by means of ELISA technique.
(§9) Commercially available colorimetric and ELISA kits were used.
(§10) The colorimetric kits use a specific probe, a mixture of reaction enzymes and a curve with known amounts of each standard.
(§11) The data obtained in the experimental groups treated with the samples subject of the study were subjected to statistical analysis and compared with each other and with insulin according to the t-test. Variations are considered significant for p<0.05.
Glucose assay: the results (Table 2 and FIG. 1) are expressed as mean content±st.dev. (expressed in nanomoles) and as a mean % variation with respect to treatment with insulin. Statistically significant data with respect to insulin are reported with *, while ^∘ indicates differences between tested compounds.

The test system of a further test is GLUT-4. Nature of the test: GLUT-4 study: ELISA of GLUT-4 in cell homogenate of insulin-treated differentiated mouse myoblasts.
From the text: as §1, §2, §3, §4, §5, §6, §7, §8, §9
ELISA kits exploit the competitive binding of an antigen (in this case GLUT-4) with its primary antibody. The immune complex (antigen-antibody) is in turn recognised by a secondary antibody conjugated to a peroxidase. The addition of the peroxidase substrate produces a colorimetric reaction with intensity proportional to the amount of immune complexes present and thus to the amount of bound target molecule. Quantitative determination exploits a calibration curve constructed with known and increasing concentrations of standard marker.
as §11
GLUT-4 assay: the results (Table 3 and FIG. 2) are expressed as mean content±st.dev. (expressed in μg/L) and as a mean % variation with respect to treatment with insulin. Statistically significant data with respect to insulin are reported with *, while ^∘ indicates differences between tested compounds.
(ELISA stands for enzyme-linked immunosorbent assay.)

Test [2] concerns differentiated mouse myoblasts. Nature of the test: ATP study: colorimetric assay of ATP content in insulin-treated differentiated mouse myoblasts.
From the text: as §1, §2, §3, §4, §5, §6, §7, §8, §9, §10, §11
ATP assay: the results (Table 4 and FIG. 3) are expressed as mean content±st.dev. (expressed in nanomoles) and as a mean % variation with respect to treatment with insulin. Statistically significant data with respect to insulin are reported with *, while ^∘ indicates differences between tested compounds.

Where [3] appears, read: insulin 100 nM for 4 hours, insulin-treated control cells.
Where [4] appears, read: 50 μM (Cr) for 24 hours + insulin 100 nM for 4 hours.
Where [5] appears, read: 100 μM (Cr) for 24 hours + insulin 100 nM for 4 hours.
Setting [6] is: 500 μM (Cr) for 24 hours + insulin 100 nM for 4 hours.
Where [7] appears, read: at 500 µM and 100 µM, significance vs. insulin p<0.05.
Where [8] appears, read: 2000 um for 24 hours + insulin 100 nM for 4 hours.

Turning to “Insulin: insulin (100 nM) used to treat control cells and all treated cultures”, the “mean value (glucose assay, mean content)” value in test [1] (setting [3]) is 9.42 nmol. For the same compound, the “mean value (GLUT-4 assay, mean content)” value in the test with GLUT-4 (setting [3]) came to 5.24 µg/L. Also, in test [2] (setting [3]), the “mean value (ATP assay, mean content)” value is 3.92 nmol.
For the compound “chromium (III) picolinate [CR picolinate]”, the entries for the “mean value (glucose assay, mean content)” value in test [1] (setting [4]), in test [1] (setting [5]) and in test [1] (setting [6]) were 10.24 nmol, 11.08 nmol and 11.24 nmol, respectively. The “% var. vs. insulin (glucose assay)” value in test [1] (50 μM + insulin) was determined as 8.7%; in test [1] (100 μM + insulin), 17.6%; in test [1] (500 μM + insulin) it was 19.3%. Besides, the “glucose uptake, behaviour over the three concentrations, in words” value in test [1] (500, 100 and 50 μM) was “showed a dose-dependent behaviour”. Further, in test [1] (setting [7]), the “insulin-dependent glucose uptake, result in words” value is listed as “effective in significantly increasing insulin-dependent glucose uptake”. For the same compound, the “mean value (GLUT-4 assay, mean content)” value in the test on GLUT-4 (setting [4]) was found to be 5.60 µg/L; in the test on GLUT-4 (setting [5]), 6.35 µg/L; in the test with GLUT-4 (setting [6]) it was 6.50 µg/L. For the same compound, the entries for the “% var. vs. insulin (GLUT-4 assay)” value in the test with GLUT-4 (50 μM + insulin), in the test with GLUT-4 (100 μM + insulin) and with GLUT-4 (500 μM + insulin) were 6.8%, 21.1% and 24.0%, respectively. Further, the “GLUT-4 levels, behaviour over the three concentrations, in words” value in the test with GLUT-4 (500, 100 and 50 μM) is “showed a dose-dependent behaviour”. The “levels of GLUT-4 carrier, result in words” value with GLUT-4 (setting [7]) is “effective in significantly increasing the levels of GLUT-4 carrier”. The “mean value (ATP assay, mean content)” value in test [2] (setting [4]) came to 4.09 nmol; in test [2] (setting [5]), 4.78 nmol; in test [2] (setting [6]), 5.35 nmol. Moreover, the “% var. vs. insulin (ATP assay)” value in test [2] (50 μM + insulin) was 4.3%; in test [2] (100 μM + insulin), 22.1%; in test [2] (500 μM + insulin), 36.5%. Besides, the “intracellular ATP, behaviour over the three concentrations, in words” value in test [2] (500, 100 and 50 μM) is reported as “showed a dose-dependent behaviour”. In test [2] (at 50 μM), the “intracellular ATP, statistical comparison between the compositions, in words” value was “does not show performance differences”. The “levels of intracellular ATP, result in words” value in test [2] (setting [7]) is recorded as “effective in significantly increasing the levels of intracellular ATP”.
Consider `CN(C)C(=N)N=C(N)N` [Metformin, metformin hydrochloride], for which the “% var. vs. insulin (glucose assay)” value in test [1] (2000 um + insulin) came to 24.6%. Also, the “mean value (glucose assay, mean content)” value in test [1] (setting [8]) came out at 11.73 nmol. Besides, the “% var. vs. insulin (GLUT-4 assay)” value in the test with GLUT-4 (2000 um + insulin) stood at 28.0%. Also, the “mean value (GLUT-4 assay, mean content)” value in the test with GLUT-4 (setting [8]) worked out at 6.71 µg/L. Also, in test [2] (2000 um + insulin), the “% var. vs. insulin (ATP assay)” value was 17.6%. Moreover, the “mean value (ATP assay, mean content)” value in test [2] (setting [8]) was 4.61 nmol.
